Usually mortality stands for the share of the test organisms that died.

Structures can show the parent of a compound that is named as a salt. Some results are limits rather than exact numbers.

Format in all cases: in vivo
For data set [1], the system named is Orchid Thrips (Dichromothrips corbetti). Put plainly: Orchid thrips floral-immersion test (B.5). As to conditions: 500 ppm, adult thrips, after 4 days. How it is done: B.5 Orchid Thrips (Dichromothrips corbetti)
Dichromothrips corbetti adults used for bioassay are obtained from a colony maintained continuously under laboratory conditions. […]
Thrips potency of each compound is evaluated by using a floral-immersion technique. Plastic petri dishes are used as test arenas. All petals of individual, intact orchid flowers are dipped into treatment solution and allowed to dry. Treated flowers are placed into individual petri dishes along with 10-15 adult thrips. The petri dishes are then covered with lids. All test arenas are held under continuous light and a temperature of about 28° C. for duration of the assay. After 4 days, the numbers of live thrips are counted on each flower, and along inner walls of each petri dish. The level of thrips mortality is extrapolated from pre-treatment thrips numbers.

In data set [2] the test system is Mediterranean Fruitfly (Ceratitis capitata). Put plainly: Mediterranean fruitfly microtiter diet test (B.4). The settings on record: 120 h, egg and larval mortality after 5 days, read-out: mortality in comparison with untreated controls. Here is the method:
B.4 Mediterranean Fruitfly (Ceratitis capitata)
For evaluating control of Mediterranean fruitfly (Ceratitis capitata) the test unit consisted of microtiter plates containing an insect diet and 50-80 C. capitata eggs. The compounds were formulated using a solution containing 75% v/v water and 25% v/v DMSO. Different concentrations of formulated compounds were sprayed onto the insect diet at 5 μl, using a custom built micro atomizer, at two replications. After application, microtiter plates were incubated at about 28±1° C. and about 80±5% relative humidity for 5 days. Egg and larval mortality was then visually assessed.

The subject of data set [3] is Vetch Aphid (Megoura viciae). Kind of data set: Vetch aphid leaf disk microtiter test (B.9). As to conditions: foliar, 120 h, adult aphids on broad bean leaf disks, 5 days, read-out: mortality in comparison with untreated controls. Here is the method:
B.9 Vetch Aphid (Megoura viciae)
For evaluating control of vetch aphid (Megoura viciae) through contact or systemic means the test unit consisted of 24-well-microtiter plates containing broad bean leaf disks.
The compounds were formulated using a solution containing 75% v/v water and 25% v/v DMSO. Different concentrations of formulated compounds were sprayed onto the leaf disks at 2.5 μl, using a custom built micro atomizer, at two replications.
After application, the leaf disks were air-dried and 5-8 adult aphids placed on the leaf disks inside the microtiter plate wells. The aphids were then allowed to suck on the treated leaf disks and incubated at about 23±1° C. and about 50±5% relative humidity for 5 days. Aphid mortality and fecundity was then visually assessed.

In data set [4] the test system is Boll Weevil (Anthonomus grandis). Put plainly: Boll weevil microtiter diet test (B.11). The settings on record: 120 h, egg and larval mortality after 5 days, read-out: mortality in comparison with untreated controls. Here is the method: B.11 Boll Weevil (Anthonomus grandis)
For evaluating control of boll weevil (Anthonomus grandis) the test unit consisted of 24-well-microtiter plates containing an insect diet and 20-30 A. grandis eggs.
The compounds were formulated using a solution containing 75% v/v water and 25% v/v DMSO. Different concentrations of formulated compounds were sprayed onto the insect diet at 20 μl, using a custom built micro atomizer, at two replications.
After application, microtiter plates were incubated at about 23±1° C. and about 50±5% relative humidity for 5 days. Egg and larval mortality was then visually assessed.

Data set [5] relates to Silverleaf Whitefly (Bemisia argentifoli). Put plainly: Silverleaf whitefly cotton plant spray test (B.6). As to conditions: 300 ppm; whitefly adults on sprayed cotton, 3 days after treatment. From the text: B.6 Silverleaf Whitefly (Bemisia argentifoli)
(§1) The active compounds were formulated in cyclohexanone as a 10,000 ppm solution supplied in tubes. The tubes were inserted into an automated electrostatic sprayer equipped with an atomizing nozzle and they served as stock solutions for which lower dilutions were made in 50% acetone:50% water (v/v). A nonionic surfactant (Kinetic®) was included in the solution at a volume of 0.01% (v/v).
Cotton plants at the cotyledon stage (one plant per pot) were sprayed by an automated electrostatic plant sprayer equipped with an atomizing spray nozzle. The plants were dried in the sprayer fume hood and then removed from the sprayer. Each pot was placed into a plastic cup and about 10 to 12 whitefly adults (approximately 3-5 days old) were introduced. The insects were collected using an aspirator and a nontoxic Tygon® tubing connected to a barrier pipette tip. The tip, containing the collected insects, was then gently inserted into the soil containing the treated plant, allowing insects to crawl out of the tip to reach the foliage for feeding. Cups were covered with a reusable screened lid. […] Mortality was assessed 3 days after treatment, compared to untreated control plants.

Data set [6] has as its system Cowpea Aphid (Aphis craccivora). Kind of data set: Cowpea aphid spray test on potted cowpea plants (B.2). The settings on record: 100 ppm; sprayed cowpea plants; assessed after 24, 72 and 120 hours. How it is done:
If not otherwise specified the test solutions were prepared as follow:
The active compound was dissolved at the desired concentration in a mixture of 1:1 (vol:vol) distilled water:acteon. The test solution was prepared the day it was used and in general at concentrations of […] (wt/vol).
B.2 Cowpea Aphid (Aphis craccivora)
Potted cowpea plants colonized with approximately 100-150 aphids of various stages were sprayed after the pest population has been recorded. Population reduction was assessed after 24, 72, and 120 hours.

The subject of data set [7] is Tobacco Budworm (Heliothis virescens). Kind of data set: Tobacco budworm cotton plant spray test (B.10). As to conditions: 2500 ppm; larvae on sprayed cotton, 4 days after treatment. Here is the method: B.10 Tobacco Budworm (Heliothis virescens) I
as §1
Cotton plants were grown 2 plants to a pot and selected for treatment at the cotyledon stage. Test solutions were sprayed onto the foliage by an automated electrostatic plant sprayer equipped with an atomizing spray nozzle. The plants were dried in the sprayer fume hood and then removed from the sprayer. Each pot was placed into perforated plastic bags with a zip closure. About 10 to 11 budworm larvae were placed into the bag and the bags zipped closed. Test plants were maintained in a growth room at about 25° C. and about 20-40% relative humidity for 4 days, avoiding direct exposure to fluorescent light (24 hour photoperiod) to prevent trapping of heat inside the bags. Mortality and reduced feeding were assessed 4 days after treatment, compared to untreated control plants.

As for `O=C(NCC(F)(F)F)c1cc(C2=NOC(c3cc(Cl)cc(Cl)c3)(C(F)(F)F)C2)ccn1` (centres unmarked) [compound 2-3], in data set [1], the “mortality in comparison with untreated controls” value (from here on “mortality in comparison”) is on record as “at least 75%”. Regarding `NCc1cccc(C2=NOC(c3cc(Cl)cc(Cl)c3)(C(F)(F)F)C2)c1` (centres unmarked) [compound 3-1, 3-[5-(3,5-dichloro-phenyl)-5-trifluoromethyl-4,5-dihydro-isoxazol-3-yl]-benzylamine hydrochloride], the mortality at 2500 ppm in data set [2], in data set [3] and in data set [4] was at least 75% throughout. For the compound `CCC(=O)NCc1cccc(C2=NOC(c3cc(Cl)cc(Cl)c3)(C(F)(F)F)C2)c1` (centres unmarked) [compound 3-2, N-{3-[5-(3,5-dichloro-phenyl)-5-trifluoromethyl-4,5-dihydro-isoxazol-3-yl]-benzyl}-propionamide], the mortality at 2500 ppm in data set [2], in data set [3] and in data set [4] was at least 75% each time. On to `CC(=O)NCc1cccc(C2=NOC(c3cc(Cl)cc(Cl)c3)(C(F)(F)F)C2)c1` (centres unmarked) [compound 3-3, N-{3-[5-(3,5-dichloro-phenyl)-5-trifluoromethyl-4,5-dihydro-isoxazol-3-yl]-benzyl}-acetamide], for which the mortality at 2500 ppm in data set [2], in data set [3] and in data set [4] was at least 75% each time.

In the case of `CSCC(=O)NCc1cccc(C2=NOC(c3cc(Cl)cc(Cl)c3)(C(F)(F)F)C2)c1` (centres unmarked) [compound 3-4, N-{3-[5-(3,5-dichloro-phenyl)-5-trifluoromethyl-4,5-dihydro-isoxazol-3-yl]-benzyl}-2-methylsulfanyl-acetamide], the mortality at 2500 ppm in data set [2] was at least 75%.

As for `CCCC(=O)NCc1cccc(C2=NOC(c3cc(Cl)cc(Cl)c3)(C(F)(F)F)C2)c1` (centres unmarked) [compound 3-5, N-{3-[5-(3,5-dichloro-phenyl)-5-trifluoromethyl-4,5-dihydro-isoxazol-3-yl]-benzyl}-butyramide], the mortality at 2500 ppm in data set [2], in data set [3] and in data set [4] was at least 75% throughout. In the case of `CCCC(=O)OCc1cccc(C2=NOC(c3cc(Cl)cc(Cl)c3)(C(F)(F)F)C2)c1` (centres unmarked) [compound 3-9], the “mortality in comparison” value in data set [5] is “at least 75%”.

Regarding `CN1CCC(Oc2cccc(C3=NOC(c4cc(Cl)cc(Cl)c4)(C(F)(F)F)C3)c2)C1=O` (centres unmarked) [compound 5-1], the “mortality in comparison” value in data set [6] is reported as “at least 75%”. Take `[O-][S+](c1cccc(C2=NOC(c3cc(Cl)cc(Cl)c3)(C(F)(F)F)C2)c1)C(F)(F)F` (centres unmarked) [compound 6-2]: the “mortality in comparison” value in data set [7] is recorded as “at least 75%”.

The values are drawn from patent US20120291159A1, “Azoline Compounds for Combating Invertebrate Pests” (BASF SE, priority 2009, published 2012).
